Structures can show the parent of a compound that is named as a salt.
Experiments:
[1] = tested on: MKN-45 cells; test: Inhibition of MKN-45 proliferation (MTT); type: cell-based, human; conditions: Homo sapiens, MKN-45, MKN-45 proliferation
Method: Inhibition of MKN-45 Proliferation:
Cell proliferation assays were carried out using the high Met expressing human gastric adenocarcinoma cell line, MKN-45, according to the following schedule:
Day 1: Cells were plated in 96-well plates in complete growth medium.
Day 2: Compounds at desired concentrations were added.
Day 5: Cell viability was determined using the 3-[4,5-dimethylthiazol-2-yl]-2,5-diphenyltetrazolium bromide (MTT) dye reduction test.

| SMILES | melting point [°C] | inhibition at 1 µM [1] [%] | GI50 [1] [µM] | inhibition at 0.1 µM [1] [%] |
| --- | --- | --- | --- | --- |
| CN(C)CCCNC(=O)c1ccc(-c2ccc3nnn(Cc4ccc5ncccc5c4)c3n2)cc1F (as salt: hydrochloride) [Ex 121, N-(3-(dimethylamino)propyl)-2-fluoro-4-(3-(quinolin-6-ylmethyl)-3H-[1,2,3]triazolo[4,5-b]pyridin-5-yl)benzamide dihydrochloride] | 137 to 140 | – | – | – |
| COc1ccc(-c2ccc3nnn(Cc4ccc5ncccc5c4)c3n2)cc1 [Ex 1, 6-((5-(4-Methoxyphenyl)-3H-[1,2,3]triazolo[4,5-b]pyridin-3-yl)methyl)quinoline] | 144 to 146 | 25 to 50 | – | – |
| OCc1cccc(-c2ccc3nnn(Cc4ccc5ncccc5c4)c3n2)c1 [Ex 4, (3-(3-(quinolin-6-ylmethyl)-3H-[1,2,3]triazolo[4,5-b]pyridin-5-yl)phenyl)methanol] | 191 to 193 | – | 0.15 to 0.5 | – |
| OCc1ccc(-c2ccc3nnn(Cc4ccc(F)cc4)c3n2)cc1 [Ex 11, (4-(3-(4-Fluorobenzyl)-3H-[1,2,3]triazolo[4,5-b]pyridin-5-yl)phenyl)methanol] | 210 to 213 | – | – | – |
| O=C(O)c1ccc(-c2ccc3nnn(Cc4c(F)ccc(F)c4Cl)c3n2)cc1F [Ex 18, 4-(3-(2-Chloro-3,6-difluorobenzyl)-3H-[1,2,3]triazolo[4,5-b]pyridin-5-yl)-2-fluorobenzoic acid] | 211 to 213 | < 25 | – | – |
| CNC(=O)c1ccc(-c2ccc3nnn(Cc4c(F)ccc(F)c4Cl)c3n2)cc1F [Ex 19, 4-(3-(2-Chloro-3,6-difluorobenzyl)-3H-[1,2,3]triazolo[4,5-b]pyridin-5-yl)-2-fluoro-N-methylbenzamide] | 213 to 215 | < 25 | – | – |
| FC(F)(F)Oc1cccc(-c2ccc3nnn(Cc4ccc5ncccc5c4)c3n2)c1 [Ex 23, 6-((5-(3-(trifluoromethoxy)phenyl)-3H-[1,2,3]triazolo[4,5-b]pyridin-3-yl)methyl)quinoline] | 140 to 142 | < 25 | – | – |
| Oc1cccc(-c2ccc3nnn(Cc4ccc5ncccc5c4)c3n2)c1 [Ex 24, 3-(3-(quinolin-6-ylmethyl)-3H-[1,2,3]triazolo[4,5-b]pyridin-5-yl)phenol] | 255 to 257 | < 25 | – | – |
| FC(F)Oc1cccc(-c2ccc3nnn(Cc4ccc5ncccc5c4)c3n2)c1 [Ex 25, 6-((5-(3-(difluoromethoxy)phenyl)-3H-[1,2,3]triazolo[4,5-b]pyridin-3-yl)methyl) quinoline] | 122 to 125 | < 25 | – | – |
| O=C(NC1CCCCC1)c1ccc(-c2ccc3nnn(Cc4ccc5ncccc5c4)c3n2)cc1F [Ex 45, N-cyclohexyl-2-fluoro-4-(3-(quinolin-6-ylmethyl)-3H-[1,2,3]triazolo[4,5-b]pyridin-5-yl)benzamide] | 172 to 175 | – | – | – |
| O=C(Nc1ccncc1)c1ccc(-c2ccc3nnn(Cc4ccc5ncccc5c4)c3n2)cc1F [Ex 47, 2-Fluoro-N-(pyridin-4-yl)-4-(3-(quinolin-6-ylmethyl)-3H-[1,2,3]triazolo[4,5-b]pyridin-5-yl)benzamide] | 217 to 219 | 50 to 75 | – | < 25 |
| O=C(NCc1ccccc1)c1ccc(-c2ccc3nnn(Cc4ccc5ncccc5c4)c3n2)cc1F [Ex 48, N-Benzyl-2-fluoro-4-(3-(quinolin-6-ylmethyl)-3H-[1,2,3]triazolo[4,5-b]pyridin-5-yl)benzamide] | 163 to 165 | 75 to 100 | – | < 25 |
| CN(C)C(=O)c1ccc(-c2ccc3nnn(Cc4ccc5ncccc5c4)c3n2)cc1F [Ex 49, 2-Fluoro-N,N-dimethyl-4-(3-(quinolin-6-ylmethyl)-3H-[1,2,3]triazolo[4,5-b]pyridin-5-yl)benzamide] | 163 to 165 | 25 to 50 | – | < 25 |
| O=C(O)CNC(=O)c1ccc(-c2ccc3nnn(Cc4ccc5ncccc5c4)c3n2)cc1F [Ex 51, 2-(2-Fluoro-4-(3-(quinolin-6-ylmethyl)-3H-[1,2,3]triazolo[4,5-b]pyridin-5-yl)benzamido)acetic acid] | 252 to 254 | < 25 | – | < 25 |
| Fc1cccc(-c2ccc3nnn(Cc4ccc5ncccc5c4)c3n2)c1 [Ex 56, 6-((5-(3-Fluorophenyl)-3H-[1,2,3]triazolo[4,5-b]pyridin-3-yl)methyl)quinoline] | 145 to 147 | < 25 | – | < 25 |
| CON(C)C(=O)c1ccc(-c2ccc3nnn(Cc4ccc5ncccc5c4)c3n2)cc1F.Cl [Ex 59, 2-Fluoro-N-methoxy-N-methyl-4-(3-(quinolin-6-ylmethyl)-3H-[1,2,3]triazolo[4,5-b]pyridin-5-yl)benzamide hydrochloride] | 201 to 202 | 50 to 75 | – | < 25 |
| NCCCNC(=O)c1ccc(-c2ccc3nnn(Cc4ccc5ncccc5c4)c3n2)cc1F [Ex 112, N-(3-Aminopropyl)-2-fluoro-4-(3-(quinolin-6-ylmethyl)-3H-[1,2,3]triazolo[4,5-b]pyridin-5-yl)benzamide] | 292 to 294 | – | – | – |
| O=C(NC1CC1)c1ccc(-c2ccc3nnn(Cc4ccc5ncccc5c4)c3n2)cc1Cl [Ex 113, 2-Chloro-N-cyclopropyl-4-(3-(quinolin-6-ylmethyl)-3H-[1,2,3]triazolo[4,5-b]pyridin-5-yl)benzamide] | 197 to 199 | – | – | – |
| CCCn1cc(-c2ccc3nnn(Cc4ccc5ncccc5c4)c3n2)cn1 [Ex 153, 6-((5-(1-Propyl-1H-pyrazol-4-yl)-3H-[1,2,3]triazolo[4,5-b]pyridin-3-yl)methyl)quinoline] | 128 to 130 | – | – | – |
| O=C(O)Cn1cc(-c2ccc3nnn(Cc4ccc5ncccc5c4)c3n2)cn1 [Ex 155, 2-(4-(3-(Quinolin-6-ylmethyl)-3H-[1,2,3]triazolo[4,5-b]pyridin-5-yl)-1H-pyrazol-1-yl)acetic acid] | > 270 | – | – | – |
| O[C@@H]1CCN(c2ccc3nnn(Cc4ccc5ncccc5c4)c3n2)C1 [Ex 158, (R)-1-(3-(Quinolin-6-ylmethyl)-3H-[1,2,3]triazolo[4,5-b]pyridin-5-yl)pyrrolidin-3-ol] | 167 to 169 | – | – | – |
| OCCn1cc(-c2ccc3nnn(Cc4ccc(F)cc4)c3n2)cn1 [Ex 161, 2-(4-(3-(4-Fluorobenzyl)-3H-[1,2,3]triazolo[4,5-b]pyridin-5-yl)-1H-pyrazol-1-yl)ethanol] | 204 to 206 | – | – | – |
| OCCn1cc(-c2ccc3nnn(Cc4c(F)ccc(F)c4Cl)c3n2)cn1 [Ex 165, 2-(4-(3-(2-Chloro-3,6-difluorobenzyl)-3H-[1,2,3]triazolo[4,5-b]pyridin-5-yl)-1H-pyrazol-1-yl)ethanol] | 143 to 145 | – | – | – |
| NC(=O)c1ccc(-c2ccc3nnn(Cc4ccc5c(ccc[n+]5[O-])c4)c3n2)cc1Cl [Ex 224, 6-((5-(4-carbamoyl-3-chlorophenyl)-3H-[1,2,3]triazolo[4,5-b]pyridin-3-yl)methyl)quinoline 1-oxide] | – | – | – | 25 to 50 |
| CCNC(=O)c1ccc(-c2ccc3nnn(Cc4ccc5ncccc5c4)c3n2)cc1Cl [Ex 225, 2-chloro-N-ethyl-4-(3-(quinolin-6-ylmethyl)-3H-[1,2,3]triazolo[4,5-b]pyridin-5-yl)benzamide hydrochloride] | – | 50 to 75 | – | 75 to 100 |
